Experimental data: ChEMBL document CHEMBL6078624, “Structure-based discovery of a 4,5-Dihydropyrazole-cored PET ligand for imaging of receptor-interacting serine/threonine-protein kinase 1 (RIPK1) in the brain” (Eur J Med Chem, 2024)

Assay: Inhibition of TSZ-induced necroptosis in human HT-29 cells by CellTiter-Glo luminescent cell viability assay

`O=C(c1cccc(F)n1)N1CCC(C(=O)N2N=CCC2c2cc(F)cc(F)c2)CC1` (stereo unspecified) gave an EC50 of 100 nM.
